Measured values reported in patent US5846937A, “Method of using exendin and GLP-1 to affect the central nervous system” (1149336 Ontario Inc., priority 1997, dated 1998).

Legend:
[1] = system: Wild-type (+/+), male CD1 mice; assay: Line test (locomotor activity) after ICV injection, wild-type mice; format: in vivo; settings: wild-type mice fasted overnight; ICV 5 μl; GLP-1 5 μg, Exendin(9-39) amide 10 μg, Exendin-4 amide 15 μg
Protocol: Male CD1 mice were used for these experiments. Wild-type (+/+), male CD1 mice (approx. 11 weeks old) were obtained from Charles River Canada (Quebec). Mice were acclimatized to the animal facility for several days prior to use in the actual experiments.
(§1) All mice were faster overnight 16 hours prior to the start of the experiment. Mice were lightly anesthetized by placing them in a covered beaker with 800 μl of Methoxyflurane (Metofane, Jannsen Pharmaceuticals) for approximately 3 minutes. Peptides were delivered into the ventricles by ICV injection using a 2.5 mm×30 gauge needle attached to a Hamilton syringe. All test peptides were dissolved in phosphate buffered saline. Mice were given 5 μl ICV injections of the test peptides or saline, following which they were observed closely for 3 hours.
(§2) Following ICV administration of GLP-1 [5 μg/5 μl; Glucagon-like Peptide 1 (7-36) amide, human, lot # AM680, Bachem California, Torrence, Calif.], Exendin(9-39) amide (10 μg/5 μl; lot # ZN136, Bachem California, Torrence, Calif.), Exendin-4 amide (15 μg/5 μl; kit # 506189, Bachem California, Torrence, Calif.), or PBS, mice were placed into individual cages for the period of observation.
(§3) To record food intake, mice were given a pre-weighed (approx. 3 g) amount of rodent chow when all members of a test group appeared fully alert, generally about 20-30 minutes after ICV injection.
(§4) Approximately 15-20 min. after the mice had begun to eat, or no longer than 30 min. following the addition of the pre-weighed rodent chow to the cages, the parameter of arousal/sedation was assessed, namely mice were assessed for locomotor activity by measuring the number of times each animal crossed over a line that was placed in the center of the cage (line test).
(§5) The Locomotor activity was assessed for 3×30 min consecutive periods. The data for the first 30 minutes observation period is shown in the accompanying FIG. 1.

normal wildtype mice = assay: Dose response experiment, line test after ICV injection, non-fasted mice; format: in vivo; settings: for mean number of line crossings: not fasted, saline control 66.8
Protocol: A dose response experiment was performed to compare the specific activities of exendin and GLP-1 peptides. Additionally, this experiment was designed to eliminate the possibility that the sedative response was connected to any feeding behavior. Therefore, mice were not fasted prior to the experiment, and were instead allowed food and water ad libitum throughout their dark cycle. At the beginning of the light cycle, food was removed and peptides administered. Exendin or GLP-1 peptide, obtained as described above, were each injected ICV into normal wildtype mice at a concentration of 0.5, 1.0, 5.0 or 10.0 μg per 5 μl, and locomotor activity assessed as above.

[2] = system: GLP-1R^(-/-) knockout mice; assay: Line test (locomotor activity) after ICV injection, GLP-1R knockout mice; format: in vivo; settings: GLP-1R knockout mice fasted overnight; ICV 5 μl; GLP-1 5 μg, Exendin(9-39) amide 10 μg, Exendin-4 amide 15 μg
Protocol: GLP-1R^(-/-) knockout age-matched male mice, produced as described above in example 1, were bred in the Toronto Hospital animal facility. All mice were fed a diet of ad libitum access to standard laboratory rat chow and tap water.
as §1, with “saline.” for “saline. Mice were given 5 μl ICV injections of the test peptides or saline, following which they were observed closely for 3 hours.”
as §2, §3, §4, §5

rats = settings: ICV administration; cited from earlier work

Substance | locomotor activity (number of line cross events) [1] | mean number of line crossings (normal wildtype mice; 0.5 μg per 5 μl ICV (lowest dose)) | potency relative to GLP-1 on a weight (μg) basis (normal wildtype mice; sedative effect in the mammalian central nervous system, ICV) | locomotor activity / lethargy [2] | food intake / feeding (rats) | locomotor activity (rats) | mean number of line crossings (normal wildtype mice; 10 μg per 5 μl ICV (highest dose))
Exendin-4 amide [exendin 4] | clear and marked decreased number of line cross events | 11.5 | at least 20 fold | induced lethargy and reduced movement | – | – | –
Exendin(9-39) amide | greatly increased locomotor activity | – | – | induced lethargy | doubled food intake | – | –
Glucagon-like Peptide 1 (7-36) amide [GLP-1] | exhibited the same tendency | – | – | did not | inhibits feeding | reduction in locomotor activity | 24
